The record followed here is paper PMC9415646, “Improving Aqueous Solubility and In Vitro Pharmacokinetic Properties of the 3-Nitroimidazo[1,2-a]pyridine Antileishmanial Pharmacophore” (Pharmaceuticals, 2022).

≈ marks a conversion by molar mass, not a printed value.

Data set [1] can be described thus: Thermodynamic solubility at pH 7.4 (miniaturized shake-flask). The format is physicochemical. As to conditions: phosphate buffer (PBS), aqueous buffer, kinetic from dmso stock, pH 7.4, PBS, 23 °C. The procedure: Thermodynamic solubility at pH 7.4 of compounds was determined according to a miniaturized shake-flask method (Organisation for Economic Cooperation and Development guideline n°105). Phosphate Buffer solutions (pH 7.4, […], ionic strength […]) were prepared from Na2HPO4, KH2PO4 and KCl (Sigma Aldrich, Saint Quentin Fallavier, France); 10 µL of 20 mM stock solution were added to 5 mL glass tubes containing […] buffer (n = 3). The tubes were briefly sonicated and shacked by inversion during 24 h at 23 °C. Then, the tube contents were placed in a microtube which was centrifuged at 12,225× g for 10 min; 100 µL supernatant were mixed with 100 µL acetonitrile in a Greiner UV microplate. Standard solutions were prepared extemporaneously, diluting 20 mM DMSO stock solutions at […]; 5 µL of each working solution were diluted with 995 µL buffer and 100 µL were then mixed in microplates with 100 µL acetonitrile so as to ensure that the final proportions of each solvent in standard solutions and samples remained unchanged. Solubility at pH 7.4 was determined with an Infinite M200Pro (Tecan, Lyon, France) microplate reader in spectrophotometric mode (230 to 450 nm) from the specific λmax of each compound. The calibration curve was obtained from the […] standard solutions of tested compounds at 0, 25, 50, and 100 µM in a 50:50 (vol/vol) mixture of buffer with acetonitrinile/DMSO (99:1; vol/vol). Calibration curves were linear with R^2 > 0.99.

For data set [2], the system named is L. infantum intracellular amastigotes. Kind of data set: Antileishmanial activity on L. infantum intracellular (intra-THP1 macrophage) amastigotes. Format: cell-based. As to conditions: Leishmania infantum, THP-1; intramacrophage (THP1) amastigotes, 120 h; read-out: EC50 L. infantum Intra. Ama. The procedure: The undifferentiated THP1 human monocyte cells (acute monocytic leukemia cell line purchased from ATCC, ref TIB-202) were grown in RPMI 1640 medium (Life Technologies, Saint-Aubin, France) supplemented with 10% FCS (Life Technologies, Saint-Aubin, France), 100 U/mL penicillin, 100 µg/mL streptomycin and 2 mM L-glutamine at 37 °C, 5% CO2. The culture was maintained between 3.10^5 and 1.10^6 cells/mL. The in vitro evaluation of the antileishmanial activity on intracellular amastigote forms of the tested compound was assessed as below.
Briefly, 200 μL of THP-1 cells with Phorbol 12-Myristate 13-Acetate (final concentration 50 ng/mL) were seeded in 96-well plates at an average density of 0.77 × 10^5 cells/mL and incubated for 96 h at 37 °C, 5% CO2. Promastigotes were centrifuged at 3000 rpm for 10 min and the supernatant replaced by the same volume of complete RPMI pH 5.4 and incubated for 24 h at 27 °C. Differentiated THP-1 cells were then infected by acidified promastigotes with an infection ratio of twenty parasites for one macrophage and incubated for 24 h at 37 °C, 5% CO2.
• Luciferase activity and determination of EC50 were performed as above.

In data set [3] the test system is L. donovani promastigotes. The data set can be described thus: Antileishmanial activity against L. donovani promastigotes (MTT assay). The format is cell-based. As to conditions: Leishmania donovani; promastigotes, 72 h, MTT; read-out: EC50 L. donovani Pro.
Data set [4] can be described thus: Redox potential of the nitro group by cyclic voltammetry. The format is physicochemical. As to conditions: cyclic voltammetry in DMSO, corrected versus NHE. The procedure: Voltammetric measurements were carried out with a potentiostat Autolab PGSTAT100 (ECO Chemie, Utrecht, The Netherlands) controlled by GPES 4.09 software (ECO Chemie, Utrecht, The Netherlands). Experiments were performed at room temperature in a homemade airtight three–electrode cell connected to a vacuum/argon line. The reference electrode consisted of a saturated calomel electrode (SCE) separated from the solution by a bridge compartment. The counter electrode was a platinum wire of 1 cm^2 apparent surface. The working electrode was a GC microdisk (1.0 mm in diameter–Bio-logic SAS). The supporting electrolyte (nBu4N)[PF6] (Fluka, 99% puriss electrochemical grade) and the solvent DMSO (Sigma-Aldrich puriss p.a. dried <0.02% water) were used as received and simply degassed under argon. The solutions used during electrochemical analyses were typically 10^−3 M in compound and 0.1 M in supporting electrolyte. Before each measurement, the solutions were degassed by bubbling Ar, and the working electrode was polished with a polishing machine (Presi P230, Eybens, France). Under the experimental conditions adopted in this work, the half-wave potential (E1/2) of the ferrocene Fc+/Fc couple in DMSO was E1/2 = 0.45 V vs. SCE. Experimental peak potentials were measured versus SCE and converted to NHE by adding 0.241 V.

The molecule `O=[N+]([O-])c1c(CS(=O)(=O)CCC(F)(F)F)nc2c(-c3ccncc3)cc(Cl)cn12` [Compound 7, 6-Chloro-3-Nitro-8-(Pyridin-4-yl)-2-[(3,3,3-Trifluoropropylsulfonyl)methyl]imidazo[1,2-a]pyridine] had a thermodynamic solubility at 24 h in data set [1] of 31.1 ± 3.7 µM (≈ 14 µg/mL). The values for the concentration for a half-maximal effect (EC50) in data set [2] and in data set [3] were 3.7 ± 0.4 µM and 3.1 ± 0.6 µM, respectively. Moreover, the “E0 (redox potential of the nitro group)” value in data set [4] is −0.61 V.
